Results on 5 molecules are retold here after patent publication US20120283175A1, “ANTIBACTERIAL COMPOSITIONS” (Achaogen, Inc., priority 2009, published 2012).

One test concerns gram negative bacteria. The experiment in a line: Checkerboard synergy score at fractions of the antibacterial agent's MIC, with LpxCi-1, -2, -3. Type of test: cell-based. Set-up: scale not given here. As to the method:
(§1) Partial or full inhibition of LpxC should compromise the outer membrane and thus allow these synergizing agents to enter the cells and exert an antibacterial effect at concentrations where cells untreated with an LpxC inhibitor are unaffected. As a first step, checkerboard synergy assays for a variety of antibacterial agents were perform with several LpxC inhibitors, on several species of gram negative bacteria.
(§2) Bacterial isolates were cultivated from −70° C. frozen stocks of the indicated strains by overnight passages at 35° C. in ambient air on Mueller-Hinton agar (Beckton Dickinson, Franklin Lakes, N.J.). Minimum Inhibitory Concentrations (MICs) were determined by the broth microdilution method in accordance with the Clinical and Laboratory Standards Institute (CLSI) guidelines. In brief, organism suspensions were adjusted to a 0.5 McFarland standard to yield a final inoculum between 3×10^5 and 7×10^5 colony-forming units (CFU)/mL. Drug dilutions and inocula were made in sterile, cation adjusted Mueller-Hinton Broth (Beckton Dickinson). An inoculum volume of 100 μL was added to wells containing 100 μL of broth with 2-fold serial dilutions of drug. All inoculated microdilution trays were incubated in ambient air at 35° C. for 18-24 hours. Following incubation, the lowest concentration of the drug that prevented visible growth (OD600 nm <0.05) was recorded as the MIC.

A further test relates to Yersinia enterocolitica. The experiment in a line: Checkerboard synergy assay with LpxCi-4. Particulars: combination with LpxCi-4. Format: cell-based.
Description: (§3) One classic method for assessing synergy, referred to as the checkerboard assay, is used to predict the efficacy of antibacterial agents, and is described by Scribner et. al., (Antimicrobial Agents and Chemotherapy 21(6):939-943 (1982)) and in Goodman & Gilman (The Pharmacological Basis of Therapeutics, Sixth Edition, pp. 1097-1098 (1980)). The checkerboard assay involves serial two-fold dilutions of the antibiotics individually and in combination in broth, which is then inoculated with the microorganism to be tested. After incubation, the minimum inhibitory concentration (MIC) of each drug used individually and in combination is determined (N.B., the MIC is the lowest concentration of the drug that inhibits growth in the medium). Synergism is indicated by a decrease in the MIC of each drug when used in combination. Antagonism is indicated by an increase in the MIC of either or both drugs when used in combination. Alternate methods of assessing synergy are reviewed in Greco, et al., Pharmacological Reviews 47(2):[…] (1995), incorporated herein by reference in its entirety.
as §1, §2
(§4) Standard checkerboard assays were performed with a combination of the indicated agents and LpxCi-4. Table 2 provides the FICI calculated according to standard techniques.

For another test, the system named is Klebsiella pneumoniae. The experiment in a line: Checkerboard synergy assay with LpxCi-4. Type of test: cell-based. The settings on record: combination with LpxCi-4.
Description: as §3, §1, §2, §4

Another test has as its system Pseudomonas aeruginosa. The experiment in a line: Checkerboard synergy assay with LpxCi-4. Type of test: cell-based. Particulars: combination with LpxCi-4 (3936); Pseudomonas aeruginosa (ATCC27853 in text).
Description: as §3, §1, §2, §4

Test [1] concerns P. aeruginosa (ATCC27853). The experiment in a line: MIC on P. aeruginosa ATCC27853. Type of test: cell-based. Particulars: Pseudomonas aeruginosa, ATCC 27853 / ATCC 278534; on ATCC278534 as printed. On the procedure:
as §2
This table focuses on the sensitive part of the LpxCi-4 dose response curve (30 mg/kg) by examining the mean log CFU at 0 or 24 hours, as well as the log change in CFU at 24 hours relative to zero hours (“ΔLogCFU vs 24 hr”). Data is given for animals treated with vehicle, LpxCi-4 at 30 mg/kg, a second agent alone at the indicated doses or the combination of LpxCi-4 at 30 mg/kg plus the second agent at the indicated dose. […]

Test [2] has as its system P. aeruginosa (ATCC27853). Particulars: for in vivo synergy with LpxC inhibitors: P. aeruginosa (ATCC27853), summary.
The next test concerns envA1 (D22) E. coli. The experiment in a line: MIC by broth microdilution, isogenic envA1 mutant strain. Particulars: for MIC: Strain envA1 (D21). Format: cell-based. A general note: Dilution methods test growth across graded concentrations, often in twofold steps.
In a further test the test system is E. coli ATCC25922. The experiment in a line: MIC by broth microdilution, wild type strain ATCC25922. Format: cell-based. As to the method: as §2
The subject of a further test is envA+ (D21) E. coli. The experiment in a line: MIC by broth microdilution, isogenic envA+ strain. Format: cell-based. As to the method:
as §2

The test system of test [3] is E. coli strain ATCC 25922. The settings on record: reported in US 2004-229955A1; cited from earlier work.
A further test relates to Escherichia coli. The experiment in a line: Checkerboard synergy assay with LpxCi-4. Particulars: combination with LpxCi-4. Format: cell-based.
Description: as §3, §1, §2, §4

Where [4] appears, read: with LpxCi-1, antibacterial agent at 1/16 MIC.
The mark [5] stands for this setting: with LpxCi-1, antibacterial agent at 1/64 MIC.
Where [6] appears, read: with LpxCi-1, antibacterial agent at ¼ MIC.
[7] abbreviates: with LpxCi-2, antibacterial agent at 1/16 MIC.
The mark [8] stands for this setting: with LpxCi-3, antibacterial agent at 1/16 MIC.
[9] abbreviates: with LpxCi-3, antibacterial agent at 1/64 MIC.
[10] abbreviates: with LpxCi-3, antibacterial agent at ¼ MIC.

Molecules are shown by their SMILES. In brackets after ≈: the same amount, converted by molar mass. Bounds are passed on as bounds.

The MIC is the lowest concentration found to suppress growth. For the molecule `CC[C@H]1OC(=O)[C@H](C)[C@@H](O[C@H]2C[C@@](C)(OC)[C@@H](O)[C@H](C)O2)[C@H](C)[C@@H](O[C@@H]2O[C@H](C)C[C@H](N(C)C)[C@H]2O)[C@](C)(O)C[C@@H](C)CN(C)[C@H](C)[C@@H](O)[C@]1(C)O` [Azithromycin, azithromycin], the “Synergy Score” value in the test with gram negative bacteria (setting [4]) is 0.10; with gram negative bacteria (setting [5]), 0.13; with gram negative bacteria (setting [6]) it was 0.26; in the test on gram negative bacteria (setting [7]) it was 1.06; with gram negative bacteria (with LpxCi-2, antibacterial agent at ¼ MIC) it was 0.58; in the test on gram negative bacteria (setting [8]), 0.40. Besides, the “Synergy Score” value in the test on gram negative bacteria (setting [9]) amounted to 1.02; in the test on gram negative bacteria (setting [10]), 0.29. For the same molecule, the FICI index with Yersinia enterocolitica is 0.09; with Klebsiella pneumoniae, 0.14; in the test on Pseudomonas aeruginosa it was 0.31. For the same molecule, the MIC in test [1] is > 16 µg/mL. In addition, the “in vivo synergy with LpxC inhibitors” value in [2] is “modest but potentially useful in vivo synergy”.

Take `CC[C@H]1OC(=O)[C@H](C)[C@@H](O[C@H]2C[C@@](C)(OC)[C@@H](O)[C@H](C)O2)[C@H](C)[C@@H](O[C@@H]2O[C@H](C)C[C@H](N(C)C)[C@H]2O)[C@](C)(O)C[C@@H](C)C(=O)[C@H](C)[C@@H](O)[C@]1(C)O` [Erythromycin, erythromycin]: the “Synergy Score” value with gram negative bacteria (setting [4]) turned out to be 0.17; with gram negative bacteria (setting [5]), 0.35; with gram negative bacteria (setting [6]) it was 0.36; with gram negative bacteria (setting [7]) it was 1.06; in the test on gram negative bacteria (with LpxCi-2, antibacterial agent at 1/64 MIC), 1.02; in the test with gram negative bacteria (setting [8]), 0.40. The “Synergy Score” value in the test with gram negative bacteria (setting [9]) came out at 0.35; in the test with gram negative bacteria (setting [10]) it was 0.58. Further, the MIC is 4 µg/mL (≈ 5.45 µM) against envA1 (D22) E. coli, > 16 µg/mL in test [1], 64 µg/mL (≈ 87.2 µM) against E. coli ATCC25922 and 64 µg/mL (≈ 87.2 µM) in the test with envA+ (D21) E. coli. In test [2] (24 hr, second block of Table 5, mg/kg/day b.i.d.: 3936 30, Eryth. 60, Dapto. 3, Oxacil. 100), the “ΔLogCFU vs 24 hr” value is listed as −0.21. Further, in test [2] (24 hr, second block of Table 5, mg/kg/day b.i.d.: 3936 30, Eryth. 60, Dapto. 3, Oxacil. 100, n=5), the “Log CFU Mean” value came out at 7.43. Moreover, the “in vivo synergy with LpxC inhibitors” value in test [2] is listed as “modest but potentially useful in vivo synergy”.

For `Cc1cccc(CNCC(=O)Nc2ccc(C#CC#Cc3ccc(C(=O)N[C@@H](CN)C(=O)NO)cc3)cc2)c1` [N-[(1S)-1-(aminomethyl)-2-(hydroxyamino)-2-oxoethyl]-4-(4-{4-[({[(3methylphenyl)methyl]amino}acetyl)amino]phenyl}buta-1,3-diynyl)benzamide], the synergy with erythromycin result in [3] is “strong synergy”.

As for `CO[C@@H]1[C@@H](OC(N)=O)[C@@H](O)[C@H](Oc2ccc3c(O)c(NC(=O)c4ccc(O)c(CC=C(C)C)c4)c(=O)oc3c2C)OC1(C)C` [Novobiocin, novobiocin], the FICI index entry in the test with Yersinia enterocolitica is listed as “≦0.63”; with Klebsiella pneumoniae, “≦0.38”; in the test with Pseudomonas aeruginosa, “no effect”; in the test on Escherichia coli, “≦0.25”.

As to `CCCCCCCCCCNCCN[C@@]1(C)C[C@H](O[C@H]2[C@H](Oc3c4cc5cc3Oc3ccc(cc3Cl)[C@@H](O)[C@@H](NC(=O)[C@@H](CC(C)C)NC)C(=O)N[C@@H](CC(N)=O)C(=O)N[C@H]5C(=O)N[C@H]3C(=O)N[C@H](C(=O)N[C@H](C(=O)O)c5cc(O)c(CNCP(=O)(O)O)c(O)c5-c5cc3ccc5O)[C@H](O)c3ccc(c(Cl)c3)O4)O[C@H](CO)[C@@H](O)[C@@H]2O)O[C@@H](C)[C@H]1O` [Telavancin, telavancin], the MIC against envA1 (D22) E. coli was 16 µg/mL (≈ 9.11 µM); against E. coli ATCC25922, > 128 µg/mL; with envA+ (D21) E. coli, > 128 µg/mL. The “Fold decrease in MIC (envA+/envA1)” value in the test on envA1 (D22) E. coli (envA+ vs envA1 E. coli) is on record as “≧8”. The FICI index entry is “≦0.5” in the test on Yersinia enterocolitica, “≦0.31” in the test on Klebsiella pneumoniae, “no effect” in the test on Pseudomonas aeruginosa and “no” with Escherichia coli.
